Converted amounts (≈) assume the structure as drawn. Read-outs that look alike come from different tables or passages of the source.
Key:
K. pneumoniae ATCC 13883 = test: Broth dilution MIC, K. pneumoniae ATCC 13883; assay type: cell-based; details: Klebsiella pneumoniae
[1] = test system: S. pneumoniae ATCC 700674 (PRSP); test: Broth dilution MIC, S. pneumoniae ATCC 700674; assay type: cell-based; details: Streptococcus pneumoniae
S. aureus BAA-39 (MDR) = test: Broth dilution MIC, S. aureus BAA-39; assay type: cell-based; details: for MIC: Staphylococcus aureus, BAA39
[2] = test system: S. aureus ATCC 29213 (MSSA); test: Broth dilution MIC, S. aureus ATCC 29213; assay type: cell-based; details: Staphylococcus aureus
E. coli ECM 1694 = test: Broth dilution MIC, E. coli ECM 1694; assay type: cell-based; details: Escherichia coli
[3] = test system: S. aureus ATCC 33591 (MRSA); test: Broth dilution MIC, S. aureus ATCC 33591; assay type: cell-based; details: for MIC: Staphylococcus aureus
[4] = test system: E. faecalis ATCC 29212 (VRE); test: Broth dilution MIC, E. faecalis ATCC 29212; assay type: cell-based
MRSA = test: Disk diffusion assay, zone of inhibition, MRSA; assay type: cell-based, Staphylococcus aureus; details: disk diffusion zone of inhibition
P. aeruginosa ATCC 9027 = test: Broth dilution MIC, P. aeruginosa ATCC 9027; assay type: cell-based; details: Pseudomonas aeruginosa
K. pneumoniae ATCC 51503 = test: Broth dilution MIC, K. pneumoniae ATCC 51503; assay type: cell-based; details: Klebsiella pneumoniae
[5] = test system: E. faecium ATCC 700221 (VRE); test: Broth dilution MIC, E. faecium ATCC 700221; assay type: cell-based
[6] = test system: S. pneumoniae ATCC 6301 (PSSP); test: Broth dilution MIC, S. pneumoniae ATCC 6301; assay type: cell-based; details: Streptococcus pneumoniae
M. smegmatis (mc2155) = test: Disk diffusion assay, zone of inhibition, M. smegmatis; assay type: cell-based; details: disk diffusion zone of inhibition
E. faecium CT-26 = test: Broth dilution MIC, E. faecium CT-26; assay type: cell-based; details: Enterococcus faecium
C. albicans ATCC 14053 = test: Broth dilution MIC, C. albicans ATCC 14053; assay type: cell-based; details: Candida albicans, ATCC14053; Table 1; range 64 down to 0.12 μg/ml
Procedure: In vitro Anti-bacterial & Anti-fungal Activity Assay: All test compounds were prepared as 6.4 mg/ml stock solutions in DMSO and further diluted according to the NCCLS M7-A6 (Page 5) document with sterile water or appropriate diluent. A working stock of 256 μg/ml was used to do 1:2 serial dilutions in 96-well plates. […] The inoculums were prepared by making a direct sterile water suspension of isolated colonies from 18 to 24 hr agar plates for all organisms (Mueller Hinton, Blood Agar or SDA plates). Each bacterial suspension was adjusted to read between 0.09 and 0.11 absorbance at 620 nm. […] These were further diluted 1/100 in appropriate broth for inoculating the 96-well plates. The C. albicans suspension was adjusted to read between 70 and 75% Transmittance at 530 nm and then diluted 1/500 in RPMI+MOPS broth. All aerobic bacterial and fungal plates were incubated for 18 hrs. at 35° C. […] Plates were read using a Beckman Automated Plate Reader at 650 nm. Readings were confirmed by visual examination of plates. (See Table 1, Table 2, Table 3, and Table 4). […] It is important to note that positive results against C. albicans are often indicative of broad spectrum antifungal activity, while negative results are not necessarily conclusory of a lack of activity against other fungus.

E. coli ATCC 25922 = test: Broth dilution MIC, E. coli ATCC 25922; assay type: cell-based; details: Escherichia coli
[7] = ATCC13883, Table 1, range 64 down to 0.12 μg/ml, read-out: MIC K. pneumoniae ATCC 13883
[8] = ATCC13883, Table 2, broth dilution MIC in ug/ml, read-out: MIC K pneumonia ATCC 13883
[9] = Table 1, range 64 down to 0.12 μg/ml, read-out: MIC S. pneumoniae ATCC 700674
[10] = Table 2, broth dilution MIC in ug/ml, read-out: MIC S pneumonia ATCC 700674 PRSP
[11] = Table 1, range 64 down to 0.12 μg/ml, read-out: MIC S. aureus BAA-39
[12] = Table 2, broth dilution MIC in ug/ml, read-out: MIC S aureus BAA-39 MDR
[13] = Table 1, range 64 down to 0.12 μg/ml, read-out: MIC S. aureus ATCC 29213
[14] = Table 2, broth dilution MIC in ug/ml, read-out: MIC S aureus ATCC 29213 MSSA
[15] = ECM1694, Table 1, range 64 down to 0.12 μg/ml, read-out: MIC E. coli ECM 1694
[16] = ECM1694, Table 2, broth dilution MIC in ug/ml, read-out: MIC E. coli ECM 1693
[17] = Table 1, range 64 down to 0.12 μg/ml, read-out: MIC S. aureus ATCC 33591
[18] = Table 2, broth dilution MIC in ug/ml, read-out: MIC S aureus ATCC 33591 MRSA
[19] = Enterococcus faecalis, Table 1, range 64 down to 0.12 μg/ml, read-out: MIC E. faecalis ATCC 29212
[20] = Table 2, broth dilution MIC in ug/ml, read-out: MIC E faecalis ATCC 29212 VRE
[21] = ATCC 9026 / ATCC 9027, Table 2, broth dilution MIC in ug/ml, read-out: MIC P aeruginosa ATCC 9026
[22] = ATCC9027, Table 1, range 64 down to 0.12 μg/ml, read-out: MIC P. aeruginosa ATCC 9027
[23] = ATCC51503, Table 1, range 64 down to 0.12 μg/ml, read-out: MIC K. pneumoniae ATCC 51503
[24] = ATCC51503, Table 2, broth dilution MIC in ug/ml, read-out: MIC K pneumonia ATCC 51503
[25] = Enterococcus faecium, Table 1, range 64 down to 0.12 μg/ml, read-out: MIC E. faecium ATCC 700221
[26] = Table 2, broth dilution MIC in ug/ml, read-out: MIC E faecium ATCC 700221 VRE
[27] = ATCC6301, Table 1, range 64 down to 0.12 μg/ml, read-out: MIC S. pneumoniae ATCC 6301
[28] = ATCC6301, Table 2, broth dilution MIC in ug/ml, read-out: MIC S pneumonia ATCC 6301 PSSP
[29] = CT26, Table 1, range 64 down to 0.12 μg/ml, read-out: MIC E. faecium CT-26
[30] = CT26, Table 2, broth dilution MIC in ug/ml, read-out: MIC E faecium CT-25
[31] = ATCC 25921 / ATCC 25922, Table 2, broth dilution MIC in ug/ml, read-out: MIC E. coli ATCC 25921
[32] = ATCC25922, Table 1, range 64 down to 0.12 μg/ml, read-out: MIC E. coli ATCC 25922

MIC (K. pneumoniae ATCC 13883; [7]) [µg/mL]	MIC (K. pneumoniae ATCC 13883; [8]) [µg/mL]	MIC [1, 9] [µg/mL]	MIC [1, 10] [µg/mL]	MIC (S. aureus BAA-39 (MDR); [11]) [µg/mL]	MIC (S. aureus BAA-39 (MDR); [12]) [µg/mL]	MIC [2, 13] [µg/mL]	MIC [2, 14] [µg/mL]	MIC (E. coli ECM 1694; [15]) [µg/mL]	MIC (E. coli ECM 1694; [16]) [µg/mL]	MIC [3, 17] [µg/mL]	MIC [3, 18] [µg/mL]	MIC [4, 20] [µg/mL]	MIC (P. aeruginosa ATCC 9027; [21]) [µg/mL]	MIC (P. aeruginosa ATCC 9027; [22]) [µg/mL]	MIC (K. pneumoniae ATCC 51503; [23]) [µg/mL]	MIC (K. pneumoniae ATCC 51503; [24]) [µg/mL]	MIC [5, 25] [µg/mL]	MIC [5, 26] [µg/mL]	SMILES	Zone Size MRSA (MRSA) [mm]	further results
> 64	64 (≈ 146 µM)	16 (≈ 36.6 µM)	16 (≈ 36.6 µM)	4 (≈ 9.14 µM)	4 (≈ 9.14 µM)	8 (≈ 18.3 µM)	8 (≈ 18.3 µM)	1 (≈ 2.29 µM)	1 (≈ 2.29 µM)	4 (≈ 9.14 µM)	4 (≈ 9.14 µM)	4 (≈ 9.14 µM)	64 (≈ 146 µM)	> 64	> 64	64 (≈ 146 µM)	1 (≈ 2.29 µM)	1 (≈ 2.29 µM)	c1cc(-c2cc3ccc(C4=NCCN4)cc3[nH]2)ccc1Nc1ccc(N2CCOCC2)cc1 [SKI-11]	11	MIC [4, 19]: 4 µg/mL (≈ 9.14 µM); MIC [6, 27]: 4 µg/mL (≈ 9.14 µM); MIC [6, 28]: 4 µg/mL (≈ 9.14 µM); Zone Size M. smegmatis (M. smegmatis (mc2155)): 11 mm; MIC (E. faecium CT-26; [29]): 1 µg/mL (≈ 2.29 µM); MIC (E. faecium CT-26; [30]): 1 µg/mL (≈ 2.29 µM); MIC (C. albicans ATCC 14053): 32 µg/mL (≈ 73.1 µM); MIC (E. coli ATCC 25922; [31]): 16 µg/mL (≈ 36.6 µM); MIC (E. coli ATCC 25922; [32]): 16 µg/mL (≈ 36.6 µM)
8 (≈ 18.6 µM)	8 (≈ 18.6 µM)	≤ 0.12	0.12 (≈ 0.279 µM)	1 (≈ 2.33 µM)	1 (≈ 2.33 µM)	1 (≈ 2.33 µM)	1 (≈ 2.33 µM)	4 (≈ 9.31 µM)	4 (≈ 9.31 µM)	1 (≈ 2.33 µM)	1 (≈ 2.33 µM)	0.25 (≈ 0.582 µM)	32 (≈ 74.5 µM)	32 (≈ 74.5 µM)	8 (≈ 18.6 µM)	8 (≈ 18.6 µM)	≤ 0.12	0.12 (≈ 0.279 µM)	c1ccc(-c2ccc(Nc3ccc(-c4cc5ccc(C6=NCCN6)cc5[nH]4)cc3)cc2)nc1 [SKI-12]	10	MIC ([1]; Table 3, starting at 4 μg/ml, read-out: MIC S. pneumoniae ATCC 700674): 0.12 µg/mL (≈ 0.279 µM); MIC S. aureus BAA-39 (S. aureus BAA-39 (MDR); Table 3, starting at 4 μg/ml): 1 µg/mL (≈ 2.33 µM); MIC ([2]; Table 3, starting at 4 μg/ml, read-out: MIC S. aureus ATCC 29213): 1 µg/mL (≈ 2.33 µM); MIC (E. coli ECM 1694; ECM1694, Table 3, starting at 4 μg/ml, read-out: MIC E. coli ECM 1694): 4 µg/mL (≈ 9.31 µM); MIC S. aureus ATCC 33591 ([3]; Table 3, starting at 4 μg/ml): 1 µg/mL (≈ 2.33 µM); MIC ([4]; Enterococcus faecalis, Table 3, starting at 4 μg/ml, read-out: MIC E. faecalis ATCC 29212): 0.25 µg/mL (≈ 0.582 µM); MIC ([5]; Enterococcus faecium, Table 3, starting at 4 μg/ml, read-out: MIC E. faecium ATCC 700221): 0.12 µg/mL (≈ 0.279 µM); MIC [6, 27]: ≤ 0.12 µg/mL; MIC [6, 28]: 0.12 µg/mL (≈ 0.279 µM); MIC ([6]; ATCC6301, Table 3, starting at 4 μg/ml, read-out: MIC S. pneumoniae ATCC 6301): 0.12 µg/mL (≈ 0.279 µM); Zone Size M. smegmatis (M. smegmatis (mc2155)): 12 mm; MIC (E. faecium CT-26; [29]): ≤ 0.12 µg/mL; MIC (E. faecium CT-26; [30]): 0.12 µg/mL (≈ 0.279 µM); MIC (E. faecium CT-26; CT26, Table 3, starting at 4 μg/ml, read-out: MIC E. faecium CT-26): 0.12 µg/mL (≈ 0.279 µM); MIC (C. albicans ATCC 14053): 8 µg/mL (≈ 18.6 µM); MIC (E. coli ATCC 25922; [31]): 4 µg/mL (≈ 9.31 µM); MIC (E. coli ATCC 25922; [32]): 4 µg/mL (≈ 9.31 µM)
> 64	64 (≈ 144 µM)	4 (≈ 9.02 µM)	4 (≈ 9.02 µM)	> 64	64 (≈ 144 µM)	> 64	64 (≈ 144 µM)	64 (≈ 144 µM)	64 (≈ 144 µM)	> 64	64 (≈ 144 µM)	32 (≈ 72.1 µM)	64 (≈ 144 µM)	> 64	> 64	64 (≈ 144 µM)	16 (≈ 36.1 µM)	16 (≈ 36.1 µM)	Nc1ccc(-c2ccc3cc(-c4ccc(Nc5ccc(C6=NCCN6)cc5)cc4)[nH]c3c2)cc1 [SKI-20]	9	MIC [4, 19]: 32 µg/mL (≈ 72.1 µM); MIC [6, 27]: 2 µg/mL (≈ 4.51 µM); MIC [6, 28]: 2 µg/mL (≈ 4.51 µM); Zone Size M. smegmatis (M. smegmatis (mc2155)): 8 mm; MIC (E. faecium CT-26; [29]): 8 µg/mL (≈ 18 µM); MIC (E. faecium CT-26; [30]): 8 µg/mL (≈ 18 µM); MIC (C. albicans ATCC 14053): > 64 µg/mL; MIC (E. coli ATCC 25922; [31]): 64 µg/mL (≈ 144 µM); MIC (E. coli ATCC 25922; [32]): > 64 µg/mL

From patent US20150291565A1, “INDOLE COMPOUNDS AND THEIR USE AS ANTIMICROBIALS” (Memorial Sloan-Kettering Cancer Center, priority 2012, published 2015)
